Reference: publication PMC3014449 (Molecular immunology, 2010)

System: classical pathway activation of complement in human serum
Test: Inhibition of complement activation
Type: biochemical
Details: NA: not active at the highest concentrations tested; for IC50: complement inhibition assay, initiation via the classical pathway, human serum; for IC50 fold change: relative to peptide 1

Row | Substance | IC50 | IC50 fold change
1 | Ac-I[C(NMe)VYQDWGAHRC]T-NH2 [Peptide 3] | completely inactive | –
2 | Ac-I[CVYQD(NMe)WGAHRC]T-NH2 [Peptide 7] | 25 µM | 0.1
3 | Ac-I[CVYQ(NMe)DWGAHRC]T-NH2 [Peptide 6] | 44 µM | 0.06
4 | Ac-I[CVYQDWG(NMe)AHRC]T-NH2 [Peptide 9] | completely inactive | –
5 | Ac-I[CVYQDWGAH(NMe)RC]T-NH2 [Peptide 11] | 32 µM | 0.08
6 | Ac-I[CV(NMe)YQDWGAHRC]T-NH2 [Peptide 4] | completely inactive | –
7 | Ac-I[CVYQDWGA(NMe)HRC]T-NH2 [Peptide 10] | 94 µM | 0.03
8 | Ac-I[CVYQDWGAHR(NMe)C]T-NH2 [Peptide 12] | 154 µM | 0.02
9 | Ac-I[CVY(NMe)QDWGAHRC]T-NH2 [Peptide 5] | 33 µM | 0.07
10 | Ac-I[CVYQDW(NMe)GAHRC]T-NH2 [Peptide 8] | 1.43 µM | 1.7
